SMILES strings stand for the structures.

Results on 29 compounds are retold here after US11814376B2, “Hepatitis b core protein modulators” (Assembly Biosciences, Inc., priority 2015, dated 2023).

One data set has as its system AD38 cells. The data set can be described thus: Viability of AD38 cells (Promega CellTiter-Glo). The class given is cell-based. The following applies: 10 μM compound, 6 days, CellTiter-Glo luminescence normalized to DMSO control (100%). In outline:
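AD38 cells were seeded at 50,000/well on collagen-coated plates and treated with compound added as a 10× solution in 10% DMSO for 6 days at 37° C. Viability was measured by CellTiter-Glo luminescence in tetracycline-free medium with 2% FBS and 1% DMSO, and expressed as percent of DMSO control.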

Data set [1] relates to HBV viral load in AD38 cells. The data set can be described thus: Viral load production in AD38 cells, quantitative PCR of the core sequence in supernatant. The following applies: Hepatitis B virus, 144 h, 10 μM compound, 6 days at 37° C., supernatant qPCR, relative to DMSO control; read-out: AD38 Viral Load (%) (VL with cmpd/VL in DMSO control) at 10 μM. Format: cell-based. A general note: In qPCR the cycle at which signal appears reflects the starting amount.

Regarding `CCN(CC)CCCOc1ccc(-c2ncc(CNC(=O)c3ccc4c(c3)NC(=O)c3ccccc3S4(=O)=O)s2)cc1` [compound 11073], in the data set with AD38 cells, the “AD38 Viability Normalized Result (cmpd/DMSO %) at 10 μM” value is reported as 94%. Also, the activity at 10 µM in data set [1] was 2.2%.
Take `Cc1c(C(=O)NCc2cnc(-c3ccc(C#N)cc3)s2)cc(Br)c2c1NC(=O)c1ccccc1S2` [compound 1915]: the “AD38 Viability Normalized Result (cmpd/DMSO %) at 10 μM” value in the data set on AD38 cells was 100%. Further, in data set [1], the activity at 10 µM came to 15.7%.
For `O=C1CCN(c2ncc(CNC(=O)c3ccc4c(c3)NC(=O)c3ccccc3S4(=O)=O)s2)CC1` [compound 1906] the same measures were 89% and 7.8%.
Taken in the same sequence, the figures for `CC(C)(C)OC(=O)NC1CCN(Cc2ncc(CNC(=O)c3ccc4c(c3)NC(=O)c3ccccc3S4(=O)=O)s2)CC1` [1885-A] were 107% and 4.5%.
For `CC(C)(C)c1ncc(CNC(=O)c2ccc3c(c2)NC(=O)c2ccccc2S3)s1` [compound 1555] the same measures were 89% and 1%.
As to `O=C(NCc1cnc(-c2ccc(N3CCCC3=O)cc2)s1)c1ccc2c(c1)NC(=O)c1ccccc1S2(=O)=O` [compound 1858], the “AD38 Viability Normalized Result (cmpd/DMSO %) at 10 μM” value in the data set with AD38 cells came out at 103%. Besides, the activity at 10 µM in data set [1] turned out to be 0.7%.
Taken in the same sequence, the figures for `CC(C)(C)NCCCOc1ccc(-c2ncc(CNC(=O)c3ccc4c(c3)NC(=O)c3ccccc3S4(=O)=O)s2)cc1` [compound 1990, N-((2-(4-(3-(tert-butylamino)propoxy)phenyl)thiazol-5-yl)methyl)-11-oxo-10, 11-dihydrodibenzo [b, f] [1, 4] thiazepine-8-carboxamide 5,5-dioxide] were 98% and 4.1%.
Taken in the same sequence, the figures for `N#Cc1ccc(-c2ncc(CNC(=O)c3cc4c(cc3O)S(=O)(=O)c3ccccc3C(=O)N4)s2)cc1` [1901-B, N-((2-(4-cyanophenyl)thiazol-5-yl)methyl)-7-hydroxy-11-oxo-10, 11-dihydrodibenzo [b, f] [1, 4] thiazepine-8-carboxamide 5,5-dioxide] were 108% and 69.4%.
As for `Cc1c(C(=O)NCc2cnc(-c3ccc(O)cc3)s2)ccc2c1NC(=O)c1ccccc1S2` [compound 1755], the “AD38 Viability Normalized Result (cmpd/DMSO %) at 10 μM” value with AD38 cells is 93%. Moreover, the activity at 10 µM in data set [1] is 0.4%.
Taken in the same sequence, the figures for `O=C(NCc1cnc(-c2ccc(O)cc2F)s1)c1ccc2c(c1)NC(=O)c1ccccc1S2(=O)=O` [compound 1670] were 102% and 0.9%.
Taken in the same sequence, the figures for `O=C(NCc1cnc(C(F)(F)F)s1)c1ccc2c(c1)NC(=O)c1ccccc1N2CCO` [compound 11078] were 96% and 45.7%.
For `Cl.O=C(NCc1cnc(-c2ccc(O[C@@H]3CCNC3)cc2)s1)c1ccc2c(c1)NC(=O)c1ccccc1S2(=O)=O` [compound 11103, (R)-11-oxo-N-((2-(4-(pyrrolidin-3-yloxy)phenyl)thiazol-5-yl)methyl)-10, 11-dihydrodibenzo [b, f] [1, 4] thiazepine-8-carboxamide 5,5-dioxide hydrochloride] the same measures were 102% and 2.5%.
With `O=C1Nc2c(ccc(C(=O)NCc3cnc(-n4cccn4)s3)c2Cl)S(=O)(=O)c2ccccc21` [C51-02], in the data set with AD38 cells, the “AD38 Viability Normalized Result (cmpd/DMSO %) at 10 μM” value worked out at 98%. Also, the activity at 10 µM in data set [1] came out at 0.2%.
With `O=C(NCc1cnc(-c2ccc(O)cc2)s1)c1cc2c(cc1F)Sc1ccccc1C(=O)N2` [compound 1749], the “AD38 Viability Normalized Result (cmpd/DMSO %) at 10 μM” value in the data set with AD38 cells is 109%. The activity at 10 µM in data set [1] turned out to be 54.3%.
For `O=C(NCc1cnc(-c2ccc(OC3CCNCC3)cc2)s1)c1ccc2c(c1)NC(=O)c1ccccc1S2(=O)=O` [compound 11026, 11-oxo-N-((2-(4-(piperidin-4-yloxy)phenyl)thiazol-5-yl)methyl)-10, 11-dihydrodibenzo [b, f] [1, 4] thiazepine-8-carboxamide 5,5-dioxide] the same measures were 100% and 5.5%.
For `CCc1ncc(CNC(=O)c2ccc3c(c2)NC(=O)c2ccccc2S3(=O)=O)s1` [compound 1551] the same measures were 99% and 0.4%.
Take `O=C(NCc1cnc(-c2ccccc2)s1)c1ccc2c(=O)c3ccccc3c(=O)[nH]c2c1` [compound 1594]: the “AD38 Viability Normalized Result (cmpd/DMSO %) at 10 μM” value in the data set with AD38 cells stood at 105%. Also, the activity at 10 µM in data set [1] is 0.9%.
Taken in the same sequence, the figures for `N#Cc1ccc(-c2ncc(CNC(=O)c3ccc4c(c3)NC(=O)c3ccccc3S4(=O)=O)s2)c(F)c1` [compound 1814] were 92% and 0.9%.
For `O=C(O)CNc1ncc(CNC(=O)c2ccc3c(c2)NC(=O)c2ccccc2O3)s1` [compound 1615, (5-((11-oxo-10, 11-dihydrodibenzo [b, f] [1, 4]oxazepine-8-carboxamido)methyl)thiazol-2-yl) glycine] the same measures were 103% and 54.9%.
Taken in the same sequence, the figures for `CC(C)N(C)CC(O)COc1ccc(-c2ncc(CNC(=O)c3ccc4c(c3)NC(=O)c3ccccc3S4(=O)=O)s2)cc1` (stereo not shown) [compound 11087] were 103% and 7.1%.
As for `Nc1ncc(-c2ncc(CNC(=O)c3ccc4c(c3)NC(=O)c3ccccc3S4(=O)=O)s2)cn1` [compound 1673], the “AD38 Viability Normalized Result (cmpd/DMSO %) at 10 μM” value in the data set on AD38 cells was found to be 105%. Moreover, the activity at 10 µM in data set [1] was 3.2%.
On to `Cc1c(C(=O)NCc2cnc(-c3cc[nH]n3)s2)ccc2c1NC(=O)c1ccccc1S2(=O)=O` [compound 11152], for which the “AD38 Viability Normalized Result (cmpd/DMSO %) at 10 μM” value in the data set with AD38 cells is 96%. The activity at 10 µM in data set [1] was found to be 1.6%.
For `Cc1cc2c(cc1C(=O)NCc1cncs1)NC(=O)c1ccccc1S2` [compound 1496] the same measures were 57% and 9.6%.
With `O=C(NCc1cnc(C(F)(F)F)s1)c1ccc2c(c1)NC(=O)c1ccccc1[S+]2[O-]` (stereo not shown) [compound 1772], the “AD38 Viability Normalized Result (cmpd/DMSO %) at 10 μM” value with AD38 cells came out at 109%. Further, the activity at 10 µM in data set [1] amounted to 7.1%.
Turning to `O=C(NCc1cnc(-n2ccnn2)s1)c1ccc2c(c1)NC(=O)c1ccccc1S2(=O)=O` [compound 11047], the “AD38 Viability Normalized Result (cmpd/DMSO %) at 10 μM” value in the data set with AD38 cells was determined as 96%. In data set [1], the activity at 10 µM amounted to 1.4%.
For `Cc1cc2c(cc1C(=O)NCc1cnc(-c3ccc(O)cc3)s1)NC(=O)c1ccccc1S2` [compound 1758] the same measures were 15% and 3.8%.
For the compound `Cc1c(C(=O)NCc2cnc(-n3cc(C(F)(F)F)cn3)s2)ccc2c1NC(=O)c1ccccc1S2(=O)=O` [compound 11149], in the data set on AD38 cells, the “AD38 Viability Normalized Result (cmpd/DMSO %) at 10 μM” value is given as 100%. The activity at 10 µM in data set [1] turned out to be 0.2%.
As to `CCc1ncc(CNC(=O)c2ccc3c(c2)NC(=O)c2ccccc2O3)s1` [compound 1558], the “AD38 Viability Normalized Result (cmpd/DMSO %) at 10 μM” value in the data set with AD38 cells came to 106%. For the same compound, in data set [1], the activity at 10 µM stood at 0.5%.
For `N#Cc1cccc(-c2ncc(CNC(=O)c3ccc4c(c3)NC(=O)c3ccccc3O4)s2)c1` [1714-A] the same measures were 106% and 49.2%.
